Reference: US8835617B2, “Polynucleotides encoding a human TRIM-Cyp fusion polypeptide, compositions thereof, and methods of using same” (priority 2008, dated 2014)
“Also recorded” adds a separate entry of the source.

What was measured:
HIV-1 = test system: HIV-1
Procedure: CRFK, feline kidney fibroblast cells, lack endogenous T5 and are commonly used in the field as they have large T5-restriction phenotypes in single-cycle assays.
(§1) 2×10^4 adherent cells/well or 8×10^4 suspension cells/well were plated in 48-well plates (Nunc) for challenge with single-cycle GFP reporter vectors that were titered as indicated. GFP synthesis was assessed by flow cytometry 48 hrs post-infection. For spreading infection, 10^6 Jurkat cells were infected with 1 to 15 ng p24/10^6 cells of HIV-1NL4-3-GFP-IRES-Nef. Cells were split every 3 days, fixed in 0.5% paraformaldehyde/PBS, and assayed for GFP synthesis by flow cytometry. For infection of 10^6 primary CD4^+ T cells or macrophages, 15 ng p24/10^6 cells of a CXCR4- or CCR5-tropic HIV-1NL4-3 stock was used, and infection was monitored by assessing the accumulation of RT activity in the supernatant (Sayah et al., 2004). FACSCalibur, Cellquest Pro (Becton Dickinson), and FlowJo software (Treestar, Inc.) were used to record and analyze fluorescence. 1-5×10^5 events were acquired for analysis.
as §1, with “cytometry.” for “cytometry. For infection of”, “or macrophages were infected with” for “or macrophages,”, “of CXCR4” for “of a CXCR4-”, “HIV-1NL4-3 stocks, or with low passage, primary isolates HIV-1DH12” for “HIV-1NL4-3 stock was used,”, “and HIV-1132W, (Olivier Schwartz, Pasteur Institute, Paris). Infection” for “and infection”, “supernatant (7).” for “supernatant (Sayah et al., 2004).”

HIV-1-G89V = HIV-1-G89V CA mutant vector challenge of CRFK cells; format: cell-based
From the text: (§2) Most HIV-1 plasmids and vectors have been described previously (Berthoux et al., 2004). pNL4-3 contains a complete infectious HIV-1 provirus. pNL4-3-R5 bears the V3 loop of the CCR5-tropic 92TH014-2 HIV-1 strain (Papkalla et al., 2002). To generate pNL4-3-GFP-IRES-Nef, enhanced green fluorescent protein (eGFP) and the ECMV (encephalomyocarditis virus) IRES (internal ribosome entry site) were inserted upstream of nef pNLΔenvGFP is pNL4-3 with an env-inactivating mutation and eGFP in place of nef. CSGW is an HIV-1 vector expressing eGFP under the control of the spleen focus forming virus (SFFV) promoter. pFUPI, was engineered from pFUW (Lois et al., 2002) and uses the ubiquitin promoter to drive expression of a puromycin resistance cassette followed by ECMV IRES-T5. pAIG uses the SFFV promoter to drive expression of T5 followed by IRES-eGFP. In pscALPS, the SFFV promoter drives expression of T5 and the human CypA promoter drives expression of eGFP. For three-component vector production, HIV-1 gag and pol were expressed using either psPAX2, p8.9NΔSB, p8.9NΔSB-G89V, or p8.9NΔSB-V86P/H87Q/I91V/M96I. p8.9NΔSB-V86P/H87Q/I91V/M96I is p8.9NΔSB with the V86P/H87Q/I91V/M96I mutation (Chatterji et al., 2005) introduced in CA. […] For biochemistry, hT5Cyps were cloned into the p3xFLAG-CMV-7.1 expression vector (Sigma) and HIV-1 CA was expressed as a GST-fusion using the EF1α promoter.

[1] = test system: V86P/H87Q/I91V/M96I HIV-1; test: V86P/H87Q/I91V/M96I HIV-1 CA variant vector challenge; format: cell-based
From the text: as §2

HIV-1NL4-3-GFP-IRES-Nef [2] = test: Spreading infection of Jurkat T cells with replication-competent HIV-1; format: cell-based; settings: for HIV-1 replication in spreading infection: in words, Jurkat, up to two months; for isolation of resistant HIV-1: wide range of inocula
Procedure: Jurkat T cells stably transduced with T5-expression vectors were infected with replication-competent HIV-1NL4-3-GFP-IRES-Nef.
as §1
as §1, with “cytometry.” for “cytometry. For infection of”, “or macrophages were infected with” for “or macrophages,”, “of CXCR4” for “of a CXCR4-”, “HIV-1NL4-3 stocks, or with low passage, primary isolates HIV-1DH12” for “HIV-1NL4-3 stock was used,”, “and HIV-1132W, (Olivier Schwartz, Pasteur Institute, Paris). Infection” for “and infection”, “supernatant (7).” for “supernatant (Sayah et al., 2004).”

HIV-1NL4-3-GFP-IRES-Nef [3] = test: Spreading infection after electroporation of proviral DNA into Jurkat T cell lines; format: cell-based
From the text: Studies were designed to see whether a similar system could be exploited in order to select for a T5Cyp-resistant virus. One approach was to introduce HIV-1NL4-3-GFP-IRES-Nef proviral DNA into Jurkat T cell lines expressing T5 or control by electroporation, to ensure that spreading infection was initiated by cell associated virus in the absence of free virus. […] Again no T5Cyp-resistant HIV-1 could be derived in this experimental setting.

Row | Substance | block of HIV-1 infection relative to hT5Cyp (HIV-1; CRFK cells, low multiplicities of infection) | HIV-1 restriction activity (HIV-1; in words, CRFK cells) | inhibition of HIV-1 (HIV-1; single-cycle infection of CRFK cells) [fold] | restriction of HIV-1-G89V (HIV-1-G89V) | block of V86P/H87Q/I91V/M96I HIV-1 [1] | HIV-1 replication in spreading infection (HIV-1NL4-3-GFP-IRES-Nef [2]) | isolation of resistant HIV-1 (HIV-1NL4-3-GFP-IRES-Nef [2]) | course of infection after electroporation of provirus (HIV-1NL4-3-GFP-IRES-Nef [3]) | potency relative to hT5αR323-332 and hT5αR332P (HIV-1; CRFK cells) [fold] | restriction of HIV-1 relative to rhT5α (HIV-1; CRFK cells) [fold]
1 | AoT5Cyp: Aotus (owl monkey) TRIM5-cyclophilin A fusion protein [reference compound] | about 10 fold | restricted all four lentiviruses | ~1000 | failed to restrict HIV-1-G89V | blocked infection by viruses bearing this sequence as efficiently as they block standard HIV-1 clones | No HIV-1 replication was detected; also recorded: HIV-1 replication was not detected | could not be isolated | the infection was self-limiting | – | –
2 | hT5Cyp: human TRIM5α fused at serine 322 to human cyclophilin A, SEQ ID NO:12 | – | – | – | failed to restrict HIV-1-G89V | blocked infection by viruses bearing this sequence as efficiently as they block standard HIV-1 clones | No HIV-1 replication was detected; also recorded: significantly greater anti-HIV-1 activity than a chimeric human/rhesus monkey TRIM5α; also recorded: HIV-1 replication was not detected; also recorded: superior anti-HIV-1 activity | could not be isolated | the infection was self-limiting | ~10 | ~10
